{"source": "patent US20230183237A1", "about": "“COMPETITIVE AND NONCOMPETITIVE INHIBITORS OF THE MUSCARINIC ACETYLCHOLINE RECEPTOR M5” (Vanderbilt University, priority 2020, published 2023)"}
{"target": "T1, hM5 (Homo sapiens, UniProt P08912)", "T1 construct": "expressed in transfected cells", "T1 sequence (P08912 1-532)": "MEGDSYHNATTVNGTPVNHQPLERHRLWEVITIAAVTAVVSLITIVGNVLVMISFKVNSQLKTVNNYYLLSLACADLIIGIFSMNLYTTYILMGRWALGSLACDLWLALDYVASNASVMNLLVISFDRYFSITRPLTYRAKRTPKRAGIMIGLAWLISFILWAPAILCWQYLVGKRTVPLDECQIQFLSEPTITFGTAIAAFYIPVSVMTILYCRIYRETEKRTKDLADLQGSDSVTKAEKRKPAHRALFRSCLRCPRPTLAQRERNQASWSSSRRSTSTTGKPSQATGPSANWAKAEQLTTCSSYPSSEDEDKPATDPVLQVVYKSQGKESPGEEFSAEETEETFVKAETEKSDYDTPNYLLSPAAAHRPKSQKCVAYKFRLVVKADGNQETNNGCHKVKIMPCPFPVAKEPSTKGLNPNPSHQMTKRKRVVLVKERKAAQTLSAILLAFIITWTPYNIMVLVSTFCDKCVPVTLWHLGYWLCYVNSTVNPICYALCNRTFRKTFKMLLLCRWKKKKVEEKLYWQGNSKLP", "assay": "Calcium mobilization concentration-response (IC50 vs EC80 acetylcholine), CHO hM5", "assay_type": "cell-based", "details": "CELL LINE hM5; calcium mobilization, EC80 acetylcholine addition; read-out: IC50", "in_short": "(§1)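 IC50 values derive from percent maximal acetylcholine response after an EC80 ACh addition, measured as kinetic calcium fluorescence (static ratio, max−min). Test compounds were added 140 s before agonist. Cells: stable hM5-CHO in HEPES-buffered HBSS with 2.5 mM probenecid, pH 7.4; ≥3 independent triplicate determinations.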", "units": {"IC50": "nM"}}
{"smiles": "Cn1ncc(S(=O)(=O)N2CC=C(c3cc4c(cc3Cl)OCO4)CC2)c1Cl", "note": "[Compound 351, 1-((5-chloro-1-methyl-1H-pyrazol-4-yl)sulfonyl)-4-(6-chlorobenzo[d][1,3]dioxol-5-yl)-1,2,3,6-tetrahydropyridine]", "IC50": 142}
{"smiles": "Cc1cc2ncnn2cc1C1(O)CCN(S(=O)(=O)c2cnc(C)n2C)CC1", "note": "[Compound 309, 1-((1,2-dimethyl-1H-imidazol-5-yl)sulfonyl)-4-(7-methyl-[1,2,4]triazolo[1,5-a]pyridin-6-yl)piperidin-4-ol]", "IC50": "> 10000"}
{"smiles": "O=S(=O)(c1cnc2ccccn12)N1CCC(c2cn3ncnc3cc2C(F)(F)F)CC1", "note": "[Compound 338, 6-(1-(imidazo[1,2-a]pyridin-3-yl)sulfonyl)piperidin-4-yl)-7-(trifluoromethyl_-[1,2,4]triazolo[1,5-a]pyridine]", "IC50": 164}
{"smiles": "Cc1c(S(=O)(=O)N2CCC(c3cn4ncnc4cc3Cl)CC2)cnn1C", "note": "[Compound 291, 7-chloro-6-(1-((1,5-dimethyl-1-pyrazol-4-yl)sulfonyl)piperidin-4-yl)-[1,2,4]triazolo[1,5-a]pyridine]", "IC50": 36}
{"smiles": "Cc1nn(C)c(Cl)c1S(=O)(=O)N1CCC(c2cn3ncnc3cc2F)CC1", "note": "[Compound 228, 6-(1-((5-chloro-1,3-dimethyl-1H-pyrazol-4-yl)sulfonyl)piperidin-4-yl)-7-fluoro-[1,2,4]triazolo[1,5-a]pyridine]", "IC50": 125}
{"smiles": "O=S(=O)(c1ccc2c(c1)CCO2)N1CC=C(c2cc3ncnn3cc2Cl)CC1", "note": "[Compound 140, 6-chloro-7-(1-((2,3-dihydrobenzofuran-5-yl)sulfonyl)-1,2,3,6-tetrahydropyridin-4-yl)-[1,2,4]triazolo[1,5-a]pyridine]", "IC50": "> 10000"}
{"smiles": "Cc1cc(S(=O)(=O)N2CCC(c3nn4ccnc4cc3C)CC2)cnc1Cl", "note": "[Compound 54, 6-(1-((6-chloro-5-methylpyridin-3-yl)sulfonyl)piperidin-4-yl)-7-methylimidazo[1,2-b]pyridazine]", "IC50": "> 10000"}
{"smiles": "Cc1cc2ncnn2cc1C1CCN(S(=O)(=O)c2c3ccccc3nn2C)CC1", "note": "[Compound 150, 7-methyl-6-(1-((2-methyl-2H-indazol-3-yl)sulfonyl)piperidin-4-yl)-[1,2,4]triazolo[1,5-a]pyridine]", "IC50": 325}
{"smiles": "CCc1cc2ncnn2cc1C1CCN(S(=O)(=O)c2cnn(C)c2C(F)(F)F)CC1", "note": "[Compound 331, 7-ethyl-6-(1-((1-methyl-5-(trifluoromethyl)-1H-pyrazol-4-yl)sulfonyl)piperidin-4-yl)-[1,2,4]triazolo[1,5-a]pyridine]", "IC50": 2600}
{"smiles": "Cc1nn(C)c(C(F)(F)F)c1S(=O)(=O)N1CCC(c2cn3ncnc3c(F)c2C)CC1", "note": "[Compound 266, 6-(1-((1,3-dimethyl-5-(trifluoromethyl)-1H-pyrazol-4-yl)sulfonyl)piperidin-4-yl)-8-fluoro-7-methyl-[1,2,4]triazolo[1,5-a]pyridine]", "IC50": 284}
{"smiles": "Cc1cc2ncnn2cc1C1CCN(S(=O)(=O)c2cc3c(cc2F)OCC3C)CC1", "note": "(centres unmarked) [Compound 103, 6-(1-((6-fluoro-3-methyl-2,3-dihydrobenzofuran-5-yl)sulfonyl)piperidin-4-yl)-7-methyl-[1,2,4]triazolo[5-a]pyridine]", "IC50": 195}
{"smiles": "Cc1cc2ncnn2cc1[C@@H]1CCN(S(=O)(=O)c2cnn(C)c2C)C[C@H]1O", "note": "(racemic) [Compound 197, (rac)-trans-1-((1,5-dimethyl-1H-pyrazol-4-yl)sulfonyl)-4-(7-methyl-[1,2,4]triazolo[1,5-a]pyridin-6-yl)piperidin-3-ol]", "IC50": 594}
{"smiles": "[2H]C1([2H])Oc2cc(C)c(C3CCN(S(=O)(=O)c4cnn(C)c4C)CC3)cc2OC1([2H])[2H]", "note": "[Compound 389, 1-((1,5-dimethyl-1H-pyrazol-4-yl)sulfonyl)-4-(7-methyl-2,3-dihydrobenzo[b][1,4]dioxin-6-yl-2,2,3,3-d4)piperidine]", "IC50": 182}
{"smiles": "Cc1c(C2=CCN(S(=O)(=O)c3ccc4c(c3)CCO4)CC2)cnc2ncnn12", "note": "[Compound 244, 6-(1-((2,3-dihydrobenzofuran-5-yl)sulfonyl)-1,2,3,6-tetrahydropyridin-4-yl)-7-methyl-[1,2,4]triazolo[1,5-a]pyrimidine]", "IC50": "> 10000"}
{"smiles": "Cc1ncc(S(=O)(=O)N2CCC(c3cn4ncnc4cc3F)CC2)n1C", "note": "[Compound 234, 6-(1-((1,2-dimethyl-1H-imidazol-5-yl)sulfonyl)piperidin-4-yl)-7-fluoro-[1,24]triazolo[1,5-a]pyridine]", "IC50": 407}
{"smiles": "Cc1cn2cc(C3CCN(S(=O)(=O)c4ccc5c(c4)CCO5)CC3)ncc2n1", "note": "[Compound 18, 6-(1-((2,3-dihydrobenzofuran-5-yl)sulfonyl)piperidin-4-yl)-2-methylimidazo[1,2-a]pyrazine]", "IC50": "> 10000"}
{"smiles": "O=S(=O)(c1ccc2ncsc2c1)N1CCC(c2cn3ncnc3cc2C(F)(F)F)CC1", "note": "[Compound 111, 6-((4-(7-(trifluoromethyl)-[1,2,4]triazolo[1,5-a]pyridin-6-yl)piperidin-1-yl)sulfonyl)benzo[d]thiazole]", "IC50": 1800}
{"smiles": "O=S(=O)(c1cc2c(cc1F)OCC2)N1CCC(c2cn3ncnc3cc2F)CC1", "note": "[Compound 106, 7-fluoro-6-(1-((6-fluoro-2,3-dihydrobenzofuran-5-yl)sulfonyl)piperidin-4-yl)-[1,2,4]triazolo[1,5-a]pyridine]", "IC50": "> 10000"}
{"smiles": "Cc1ccncc1C1CCN(S(=O)(=O)c2cnn(C)c2C)CC1", "note": "[Compound 384, 3-(1-((1,5-dimethyl-1H-pyrazol-4-yl)sulfonyl)piperidin-4-yl)-4-methylpyridine]", "IC50": 5760}
{"smiles": "Cc1cc2ncnn2cc1C1CCN(S(=O)(=O)c2cn(-c3ccccc3)nc2C)CC1", "note": "[Compound 102, 7-methyl-6-(1-((3-methyl-1-phenyl-1H-pyrazol-4-yl)sulfonyl)piperidin-4-yl)-[1,2,4]triazolo[1,5-a]pyridine]", "IC50": "> 10000"}
{"target": "T1, hM5", "assay": "Calcium mobilization concentration-response (IC50 vs EC80 acetylcholine), CHO hM5", "assay_type": "cell-based", "details": "CELL LINE hM5; vs EC80 acetylcholine; read-out: IC50", "in_short": "as §1", "units": {"IC50": "nM"}}
{"smiles": "Cc1cc(S(=O)(=O)N2CCC(c3cn4ncnc4cc3CCl)CC2)sn1", "note": "[Compound 606, 5-((4-(7-(chloromethyl)-[1,2,4]triazolo[1,5-a]pyridin-6-yl)piperidin-1-yl)sulfonyl)-3-methylisothiazole]", "IC50": 126}
{"smiles": "Cc1cc2ncnn2cc1C1(F)CCN(S(=O)(=O)c2cnn(C)c2CC#N)CC1", "note": "[Compound 457, 2-(4-((4-fluoro-4-(7-methyl-[1,2,4]triazolo[1,5-a]pyridin-6-yl)piperidin-1-yl)sulfonyl)-1-methyl-1H-pyrazol-5-yl)acetonitrile]", "IC50": "> 10000"}
{"smiles": "Cc1cc2ncccc2cc1C1CCN(S(=O)(=O)c2cnn(C)c2CC#N)CC1", "note": "[Compound 461, 2-(1-methyl-4-((4-(7-methylquinolin-6-yl)piperidin-1-yl)sulfonyl)-1H-pyrazol-5-yl)acetonitrile]", "IC50": 1280}
{"smiles": "Cc1nnc(S(=O)(=O)N2CCC(c3cn4ncnc4cc3Cl)CC2)[nH]1", "note": "[Compound 599, 7-chloro-6-(1-((5-methyl-4H-1,2,4-triazol-3-yl)sulfonyl)piperidin-4-yl)-[1,2,4]triazolo[1,5-a]pyridine]", "IC50": "> 10000"}
{"smiles": "Cc1cc2ncccc2cc1C1CCN(S(=O)(=O)c2cnn(C)c2C)CC1", "note": "[Compound 418, 6(1-((1,5-dimethyl-1H-pyrazol-4-yl)sulfonyl)piperidin-4-yl)-7-methylquinoline]", "IC50": 32}
{"smiles": "Cc1cc2ccnn2cc1C1CCN(S(=O)(=O)c2cnn(C)c2C)CC1", "note": "[Compound 453, 6-(1-((1,5-dimethyl-1H-pyrazol-4-yl)sulfonyl)piperidin-4-yl)-5-methylpyrazolo[1,5-a]pyridine]", "IC50": 216}
{"smiles": "O=S(=O)(c1cnn2c1CCC2)N1CCC(F)(c2cn3ncnc3cc2F)CC1", "note": "[Compound 505, 6-(1-((5,6-dihydro-4H-pyrrolo[1,2-b]pyrazol-3-yl)sulfonyl)-4-fluoropiperidin-4-yl)-7-fluoro-[1,2,4]triazolo[1,5-a]pyridine]", "IC50": 1310}
{"smiles": "[2H]C1([2H])CC(c2cn3ncnc3cc2C(F)F)CC([2H])([2H])N1S(=O)(=O)c1cn(C)nn1", "note": "[Compound 595, 7-(difluoromethyl)-6-(1-((1-methyl-1H-1,2,3-triazol-4-yl)sulfonyl)piperidin-4-yl-2,2,6,6-d4)-[1,2,4]triazolo[1,5-a]pyridine]", "IC50": 784}
{"smiles": "Cc1cc2ncnn2cc1C1CCN(S(=O)(=O)c2cnc3sccn23)CC1", "note": "[Compound 526, 5-((4-(7-methyl-[1,2,4]triazolo[1,5-a]pyridin-6-yl)piperidin-1-yl)sulfonyl)imidazo[2,1-b]thiazole]", "IC50": 14}
{"smiles": "CCc1cc2ncnn2cc1C1CCN(S(=O)(=O)c2cnn(C)c2CC#N)CC1", "note": "[Compound 408, 2-(4-((4-(7-ethyl-[1,2,4]triazolo[1,5-a]pyridin-6-yl)piperidin-1-yl)sulfonyl)-1-methyl-1H-pyrazol-5-yl)acetonitrile]", "IC50": 636}
{"smiles": "O=S(=O)(c1cnc2sccn12)N1CCC(c2cn3ncnc3cc2F)CC1", "note": "[Compound 525, 5-((4-(7-fluoro-[1,2,4]triazolo[1,5-a]pyridin-6-yl)piperidin-1-yl)sulfonyl)imidazo[2,1-b]thiazole]", "IC50": 186}
{"smiles": "CC(C)Oc1c(S(=O)(=O)N2CCC(c3cn4ncnc4cc3Cl)CC2)cnn1C", "note": "[Compound 604, 7-chloro-6-(1-((5-isopropoxy-1-methyl-1H-pyrazol-4-yl)sulfonyl)piperidin-4-yl)-[1,2,4]triazolo[1,5-a]pyridine]", "IC50": 159}
